Read-outs that look alike come from different tables or passages of the source.
Key:
Assay in all cases: biochemical
Assay type in all cases: binding
[1] = molecular target: 468 kinases (Homo sapiens, UniProt O14578); conditions: CIT; read-out: % Inhibition @ 100 nM
[2] = molecular target: 468 kinases (Homo sapiens, UniProt O60674); conditions: JAK2( JH1domain-catalytic); read-out: % Inhibition @ 100 nM
[3] = molecular target: 468 kinases (Homo sapiens, UniProt O95747); conditions: OSR1; read-out: % Inhibition @ 100 nM
[4] = molecular target: 468 kinases (Homo sapiens, UniProt P00519, Q252H); conditions: read-out: % Inhibition @ 100 nM
[5] = molecular target: 468 kinases (Homo sapiens, UniProt P08631); conditions: HCK; read-out: % Inhibition @ 100 nM
[6] = molecular target: 468 kinases (Homo sapiens, UniProt P10721, A829P); conditions: KIT(A829P); read-out: % Inhibition @ 100 nM
[7] = molecular target: 468 kinases (Homo sapiens, UniProt P11309); conditions: PIM1; read-out: % Inhibition @ 100 nM
[8] = molecular target: 468 kinases (Homo sapiens, UniProt P22607); conditions: FGFR3; read-out: % Inhibition @ 100 nM
468 kinases (Homo sapiens, UniProt P22607), sequence (P22607 23-806 limits assumed): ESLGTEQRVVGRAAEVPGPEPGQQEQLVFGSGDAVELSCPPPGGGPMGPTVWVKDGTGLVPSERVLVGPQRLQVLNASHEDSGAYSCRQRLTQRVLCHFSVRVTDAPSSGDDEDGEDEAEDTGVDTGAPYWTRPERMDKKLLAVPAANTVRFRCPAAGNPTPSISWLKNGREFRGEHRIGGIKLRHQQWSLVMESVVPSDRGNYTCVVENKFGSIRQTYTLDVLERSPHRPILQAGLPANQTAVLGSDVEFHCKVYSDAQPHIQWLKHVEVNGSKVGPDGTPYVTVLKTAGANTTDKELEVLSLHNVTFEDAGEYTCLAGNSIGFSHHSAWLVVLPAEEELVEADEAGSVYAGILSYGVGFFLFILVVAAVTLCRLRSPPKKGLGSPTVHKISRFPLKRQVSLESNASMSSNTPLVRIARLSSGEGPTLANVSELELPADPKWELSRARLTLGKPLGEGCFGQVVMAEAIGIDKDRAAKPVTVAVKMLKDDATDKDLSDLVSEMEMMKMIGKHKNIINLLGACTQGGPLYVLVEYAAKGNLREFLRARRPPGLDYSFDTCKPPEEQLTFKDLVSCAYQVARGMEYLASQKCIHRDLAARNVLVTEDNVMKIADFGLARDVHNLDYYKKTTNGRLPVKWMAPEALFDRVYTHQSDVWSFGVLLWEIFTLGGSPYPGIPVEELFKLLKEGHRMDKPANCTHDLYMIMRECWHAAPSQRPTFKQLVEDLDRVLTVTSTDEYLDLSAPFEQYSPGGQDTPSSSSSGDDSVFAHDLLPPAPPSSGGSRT

[9] = molecular target: 468 kinases (Homo sapiens, UniProt P23458); conditions: JAK1(JH1domain-catalytic); read-out: % Inhibition @ 100 nM
[10] = molecular target: 468 kinases (Homo sapiens, UniProt P29597); conditions: read-out: % Inhibition @ 100 nM
[11] = molecular target: 468 kinases (Homo sapiens, UniProt P31152); conditions: ERK4; read-out: % Inhibition @ 100 nM
[12] = molecular target: 468 kinases (Homo sapiens, UniProt P35590); conditions: TIEI; read-out: % Inhibition @ 100 nM
468 kinases (Homo sapiens, UniProt P35590), sequence (P35590 22-1138 limits assumed): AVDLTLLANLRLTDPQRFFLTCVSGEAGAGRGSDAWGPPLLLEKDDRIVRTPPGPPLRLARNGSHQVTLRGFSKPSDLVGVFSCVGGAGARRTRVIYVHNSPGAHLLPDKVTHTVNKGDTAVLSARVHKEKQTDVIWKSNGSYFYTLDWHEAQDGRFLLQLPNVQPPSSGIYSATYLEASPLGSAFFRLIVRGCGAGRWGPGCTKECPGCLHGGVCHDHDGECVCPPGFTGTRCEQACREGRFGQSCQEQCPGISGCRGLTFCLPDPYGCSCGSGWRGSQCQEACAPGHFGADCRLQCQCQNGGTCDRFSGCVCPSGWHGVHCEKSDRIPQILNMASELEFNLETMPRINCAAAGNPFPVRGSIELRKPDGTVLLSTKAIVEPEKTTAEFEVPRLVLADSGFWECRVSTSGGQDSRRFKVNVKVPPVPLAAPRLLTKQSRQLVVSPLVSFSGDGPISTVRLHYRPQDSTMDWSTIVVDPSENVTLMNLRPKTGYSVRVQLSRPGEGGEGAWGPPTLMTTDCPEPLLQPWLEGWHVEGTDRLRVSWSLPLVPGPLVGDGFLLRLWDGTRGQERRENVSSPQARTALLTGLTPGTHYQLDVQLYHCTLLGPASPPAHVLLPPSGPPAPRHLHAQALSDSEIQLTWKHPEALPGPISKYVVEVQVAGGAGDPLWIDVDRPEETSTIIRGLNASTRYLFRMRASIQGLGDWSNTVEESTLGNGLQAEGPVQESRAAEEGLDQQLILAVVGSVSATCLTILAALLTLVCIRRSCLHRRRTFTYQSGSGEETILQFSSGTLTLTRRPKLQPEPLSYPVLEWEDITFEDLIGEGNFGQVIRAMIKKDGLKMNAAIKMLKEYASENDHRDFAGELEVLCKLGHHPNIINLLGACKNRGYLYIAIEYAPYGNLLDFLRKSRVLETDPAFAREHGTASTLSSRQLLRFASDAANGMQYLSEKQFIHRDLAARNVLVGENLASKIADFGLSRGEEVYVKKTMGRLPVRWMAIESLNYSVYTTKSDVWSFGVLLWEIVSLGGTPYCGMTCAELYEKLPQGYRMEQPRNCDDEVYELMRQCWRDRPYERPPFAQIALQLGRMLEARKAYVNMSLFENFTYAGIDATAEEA

[13] = molecular target: 468 kinases (Homo sapiens, UniProt P36888, N841I); conditions: FLT3(N841I); read-out: % Inhibition @ 100 nM
[14] = molecular target: 468 kinases (Homo sapiens, UniProt P36894); conditions: BMPR1A; read-out: % Inhibition @ 100 nM
468 kinases (Homo sapiens, UniProt P36894), sequence (P36894 24-532 limits assumed): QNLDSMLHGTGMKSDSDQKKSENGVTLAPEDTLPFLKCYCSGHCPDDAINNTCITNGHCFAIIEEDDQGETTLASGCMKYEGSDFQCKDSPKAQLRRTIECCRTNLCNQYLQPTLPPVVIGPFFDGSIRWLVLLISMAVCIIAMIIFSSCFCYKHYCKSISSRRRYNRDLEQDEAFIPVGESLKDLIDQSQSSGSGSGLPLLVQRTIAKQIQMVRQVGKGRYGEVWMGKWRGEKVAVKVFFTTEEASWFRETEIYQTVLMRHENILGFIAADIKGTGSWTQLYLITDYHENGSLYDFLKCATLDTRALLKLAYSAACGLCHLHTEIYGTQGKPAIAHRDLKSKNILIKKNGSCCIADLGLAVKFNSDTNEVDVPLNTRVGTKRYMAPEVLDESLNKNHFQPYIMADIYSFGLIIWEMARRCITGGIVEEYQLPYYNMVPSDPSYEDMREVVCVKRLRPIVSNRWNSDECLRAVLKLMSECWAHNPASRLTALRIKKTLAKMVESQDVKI

[15] = molecular target: 468 kinases (Homo sapiens, UniProt P42336, C420R); conditions: PIK3CA(C420R); read-out: % Inhibition @ 100 nM
[16] = molecular target: 468 kinases (Homo sapiens, UniProt P42684); conditions: ABL2; read-out: % Inhibition @ 100 nM
[17] = molecular target: 468 kinases (Homo sapiens, UniProt P49759); conditions: CLK1; read-out: % Inhibition @ 100 nM
[18] = molecular target: 468 kinases (Homo sapiens, UniProt P51812); conditions: read-out: % Inhibition @ 100 nM
[19] = molecular target: 468 kinases (Homo sapiens, UniProt P53671); conditions: LIMK2; read-out: % Inhibition @ 100 nM
[20] = molecular target: 468 kinases (Homo sapiens, UniProt Q08881); conditions: ITK; read-out: % Inhibition @ 100 nM
[21] = molecular target: 468 kinases (Homo sapiens, UniProt Q13164); conditions: ERK5; read-out: % Inhibition @ 100 nM
468 kinases (Homo sapiens, UniProt Q13164), sequence (Q13164 2-816 limits assumed): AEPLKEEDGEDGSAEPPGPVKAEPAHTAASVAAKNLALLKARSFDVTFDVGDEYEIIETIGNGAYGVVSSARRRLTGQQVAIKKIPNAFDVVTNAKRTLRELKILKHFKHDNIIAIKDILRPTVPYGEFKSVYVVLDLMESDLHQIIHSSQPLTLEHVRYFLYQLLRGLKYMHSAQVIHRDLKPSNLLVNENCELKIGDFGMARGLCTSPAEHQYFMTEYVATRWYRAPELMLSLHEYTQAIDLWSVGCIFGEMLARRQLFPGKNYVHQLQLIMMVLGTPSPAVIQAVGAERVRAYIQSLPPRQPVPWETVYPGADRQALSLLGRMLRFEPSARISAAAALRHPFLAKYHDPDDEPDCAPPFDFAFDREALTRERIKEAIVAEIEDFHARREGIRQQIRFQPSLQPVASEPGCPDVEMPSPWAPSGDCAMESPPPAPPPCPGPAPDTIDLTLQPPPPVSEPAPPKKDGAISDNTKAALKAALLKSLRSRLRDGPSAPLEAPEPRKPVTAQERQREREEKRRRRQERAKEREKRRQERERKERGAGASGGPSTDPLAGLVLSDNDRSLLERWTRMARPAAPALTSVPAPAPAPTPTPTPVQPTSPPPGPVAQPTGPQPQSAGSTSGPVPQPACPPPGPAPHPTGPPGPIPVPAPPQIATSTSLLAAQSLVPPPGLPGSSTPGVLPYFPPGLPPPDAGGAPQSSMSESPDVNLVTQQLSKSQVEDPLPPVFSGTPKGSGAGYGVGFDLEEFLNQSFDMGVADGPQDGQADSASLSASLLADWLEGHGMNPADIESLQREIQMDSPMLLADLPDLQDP

[22] = molecular target: 468 kinases (Homo sapiens, UniProt Q13557); conditions: CAMK2D; read-out: % Inhibition @ 100 nM
468 kinases (Homo sapiens, UniProt Q13557), sequence (Q13557 2-499 limits assumed): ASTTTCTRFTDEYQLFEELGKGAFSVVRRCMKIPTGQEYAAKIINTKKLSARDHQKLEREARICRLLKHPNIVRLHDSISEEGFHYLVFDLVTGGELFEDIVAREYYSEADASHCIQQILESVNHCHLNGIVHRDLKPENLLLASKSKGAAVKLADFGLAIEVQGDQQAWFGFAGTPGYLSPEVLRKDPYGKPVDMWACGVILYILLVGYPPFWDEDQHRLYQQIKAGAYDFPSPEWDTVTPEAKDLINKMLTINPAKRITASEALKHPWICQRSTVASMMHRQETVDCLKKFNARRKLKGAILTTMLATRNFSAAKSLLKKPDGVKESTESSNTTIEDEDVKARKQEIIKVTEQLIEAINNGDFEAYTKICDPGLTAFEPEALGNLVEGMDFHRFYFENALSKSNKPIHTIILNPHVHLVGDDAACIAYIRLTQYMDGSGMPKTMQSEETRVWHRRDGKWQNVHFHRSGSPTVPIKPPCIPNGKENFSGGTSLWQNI

[23] = molecular target: 468 kinases (Homo sapiens, UniProt Q13627); conditions: DYRK1A; read-out: % Inhibition @ 100 nM
[24] = molecular target: 468 kinases (Homo sapiens, UniProt Q14012); conditions: CAMK1; read-out: % Inhibition @ 100 nM
[25] = molecular target: 468 kinases (Homo sapiens, UniProt Q14680); conditions: MELK; read-out: % Inhibition @ 100 nM
[26] = molecular target: 468 kinases (Homo sapiens, UniProt Q15208); conditions: NDR1; read-out: % Inhibition @ 100 nM
468 kinases (Homo sapiens, UniProt Q15208), sequence (Q15208 2-465 limits assumed): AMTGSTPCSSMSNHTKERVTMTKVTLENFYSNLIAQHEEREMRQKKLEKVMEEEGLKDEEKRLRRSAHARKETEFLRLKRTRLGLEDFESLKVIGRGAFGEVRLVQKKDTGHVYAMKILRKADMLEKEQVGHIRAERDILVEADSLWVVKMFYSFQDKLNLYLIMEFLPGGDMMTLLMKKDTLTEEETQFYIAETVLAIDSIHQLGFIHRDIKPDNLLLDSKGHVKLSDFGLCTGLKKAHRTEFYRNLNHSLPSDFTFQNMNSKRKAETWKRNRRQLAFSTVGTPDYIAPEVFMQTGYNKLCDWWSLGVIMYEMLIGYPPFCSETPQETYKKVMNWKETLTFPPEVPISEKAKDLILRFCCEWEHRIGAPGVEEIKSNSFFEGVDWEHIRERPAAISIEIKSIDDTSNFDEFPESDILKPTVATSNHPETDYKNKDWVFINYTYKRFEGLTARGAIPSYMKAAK

[27] = molecular target: 468 kinases (Homo sapiens, UniProt Q15349); conditions: read-out: % Inhibition @ 100 nM
[28] = molecular target: 468 kinases (Homo sapiens, UniProt Q16288); conditions: TRKC; read-out: % Inhibition @ 100 nM
468 kinases (Homo sapiens, UniProt Q16288), sequence (Q16288 32-839 limits assumed): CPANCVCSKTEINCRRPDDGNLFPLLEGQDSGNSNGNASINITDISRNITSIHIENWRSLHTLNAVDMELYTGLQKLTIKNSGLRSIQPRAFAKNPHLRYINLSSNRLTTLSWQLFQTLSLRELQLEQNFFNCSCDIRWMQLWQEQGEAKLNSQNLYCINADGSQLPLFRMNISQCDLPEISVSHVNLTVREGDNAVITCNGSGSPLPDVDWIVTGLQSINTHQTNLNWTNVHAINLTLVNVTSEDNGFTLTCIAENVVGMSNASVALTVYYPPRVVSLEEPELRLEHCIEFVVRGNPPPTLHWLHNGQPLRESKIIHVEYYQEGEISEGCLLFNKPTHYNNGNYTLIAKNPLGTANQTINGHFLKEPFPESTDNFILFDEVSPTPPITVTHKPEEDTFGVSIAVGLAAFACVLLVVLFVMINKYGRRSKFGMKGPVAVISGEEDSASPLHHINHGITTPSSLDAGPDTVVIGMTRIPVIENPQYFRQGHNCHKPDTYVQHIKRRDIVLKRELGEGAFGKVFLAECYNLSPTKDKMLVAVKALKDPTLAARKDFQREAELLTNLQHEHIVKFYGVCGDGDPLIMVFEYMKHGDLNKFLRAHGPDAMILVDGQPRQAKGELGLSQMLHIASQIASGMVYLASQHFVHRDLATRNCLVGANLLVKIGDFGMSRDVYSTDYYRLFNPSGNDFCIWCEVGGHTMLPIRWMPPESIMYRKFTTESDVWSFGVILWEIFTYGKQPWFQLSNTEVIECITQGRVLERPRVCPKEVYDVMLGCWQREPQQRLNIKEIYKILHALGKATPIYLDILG

[29] = molecular target: 468 kinases (Homo sapiens, UniProt Q5VT25); conditions: MRCKA; read-out: % Inhibition @ 100 nM
[30] = molecular target: 468 kinases (Homo sapiens, UniProt Q9NQU5); conditions: PAK6; read-out: % Inhibition @ 100 nM
[31] = molecular target: 468 kinases (Homo sapiens, UniProt Q9UF33); conditions: EPHA6; read-out: % Inhibition @ 100 nM
[32] = molecular target: 468 kinases (Mycobacterium tuberculosis, UniProt P9WI81); conditions: PKNB(M.tuberculosis); read-out: % Inhibition @ 100 nM

| SMILES | inhibition at 0.1 µM [1] | inhibition at 0.1 µM [2] | inhibition at 0.1 µM [3] | inhibition at 0.1 µM ([4]; ABL1 (Q252H)-nonphosphorylated) | inhibition at 0.1 µM ([4]; ABL1 (Q252H)-phosphorylated) | inhibition at 0.1 µM [5] | inhibition at 0.1 µM [6] | inhibition at 0.1 µM [7] | inhibition at 0.1 µM [8] | inhibition at 0.1 µM [9] | inhibition at 0.1 µM ([10]; TYK2(JH1domain-catalytic)) | inhibition at 0.1 µM ([10]; TYK2(JH2domain-pseudokinase)) | inhibition at 0.1 µM [11] | inhibition at 0.1 µM [12] | inhibition at 0.1 µM [13] | inhibition at 0.1 µM [14] | inhibition at 0.1 µM [15] | inhibition at 0.1 µM [16] | inhibition at 0.1 µM [17] | inhibition at 0.1 µM ([18]; RSK2(Kin.Dom.1-N-terminal)) | also measured |
| --- | --- | --- | --- | --- | --- | --- | --- | --- | --- | --- | --- | --- | --- | --- | --- | --- | --- | --- | --- | --- | --- |
| CCN(CC)CCNC(=O)c1c(C)[nH]c(/C=C2\C(=O)Nc3ccc(CCO)cc32)c1C [Compound No. 10, (Z)—N-(2-(Diethylamino)ethyl)-5-((5-(2-hydroxyethyl)-2-oxoindolin-3-ylidene)methyl)-2,4-dimethyl-1H-pyrrole-3-carboxamide] | 4% | 72% | 0% | 33% | 19% | 2% | 0% | 0% | 52% | 0% | 1% | 0% | 0% | 2% | 95.5% | 0% | 0% | 0% | 90.2% | 39% | inhibition at 0.1 µM ([18]; RSK2(Kin.Dom.2-C-terminal)): 54%; inhibition at 0.1 µM [19]: 0%; inhibition at 0.1 µM [20]: 12%; inhibition at 0.1 µM [21]: 6%; inhibition at 0.1 µM [22]: 20%; inhibition at 0.1 µM [23]: 74%; inhibition at 0.1 µM [24]: 0%; inhibition at 0.1 µM [25]: 4%; inhibition at 0.1 µM [26]: 34%; inhibition at 0.1 µM ([27]; RSK3(Kin.Dom.1-N-terminal)): 13%; inhibition at 0.1 µM ([27]; RSK3(Kin.Dom.2-C-terminal)): 0%; inhibition at 0.1 µM [28]: 60%; inhibition at 0.1 µM [29]: 3%; inhibition at 0.1 µM [30]: 0%; inhibition at 0.1 µM [31]: 0%; inhibition at 0.1 µM [32]: 0% |
| CCN(CC)CCNC(=O)c1c(C)[nH]c(/C=C2\C(=O)Nc3ccc(CCC(N)=O)cc32)c1C [Compound No. 16, (Z)-5-((5-(3-Amino-3-oxopropyl)-2-oxoindolin-3-ylidene)methyl)-N-(2-(diethylamino)ethyl)-2,4-dimethyl-1H-pyrrole-3-carboxamide] | 0% | 76% | 47% | 55% | 54% | 0% | 35% | 0% | 11% | 10% | 33% | 39% | 4% | 14% | 85% | 0% | 31% | 3% | 90.7% | 59% | inhibition at 0.1 µM [19]: 17%; inhibition at 0.1 µM [20]: 12%; inhibition at 0.1 µM [21]: 100%; inhibition at 0.1 µM [22]: 4%; inhibition at 0.1 µM [23]: 93.3%; inhibition at 0.1 µM [24]: 0%; inhibition at 0.1 µM [25]: 16%; inhibition at 0.1 µM [26]: 20%; inhibition at 0.1 µM ([27]; RSK3(Kin.Dom.1-N-terminal)): 7%; inhibition at 0.1 µM ([27]; RSK3(Kin.Dom.2-C-terminal)): 19%; inhibition at 0.1 µM [28]: 63%; inhibition at 0.1 µM [29]: 9%; inhibition at 0.1 µM [30]: 0%; inhibition at 0.1 µM [31]: 0%; inhibition at 0.1 µM [32]: 16% |

From patent US12435059B2, “AMP-activated protein kinase inhibitors and methods of making and using the same” (The Regents of the University of Colorado, priority 2019, dated 2025)
